Target: G-protein coupled receptor 55 (Homo sapiens, UniProt Q9Y2T6)
Assay: blockers of GPR55 signalling, imaged – imaging, image-based, counter-screen for GPR35 antagonist project, SAR follow-up (AID 2397)
Settings: inactive by the depositor's call

Chain of G-protein coupled receptor 55 (Q9Y2T6 whole entry): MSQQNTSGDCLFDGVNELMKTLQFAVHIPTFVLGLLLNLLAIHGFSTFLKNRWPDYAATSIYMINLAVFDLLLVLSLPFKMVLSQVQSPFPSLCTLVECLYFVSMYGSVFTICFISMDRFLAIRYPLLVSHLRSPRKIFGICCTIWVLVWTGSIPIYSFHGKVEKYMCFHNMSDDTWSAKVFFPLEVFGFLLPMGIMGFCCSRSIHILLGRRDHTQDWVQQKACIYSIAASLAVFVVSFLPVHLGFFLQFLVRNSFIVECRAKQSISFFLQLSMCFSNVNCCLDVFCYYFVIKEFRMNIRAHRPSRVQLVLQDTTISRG

CC(/C=C1\SC(=S)N(CCCC(=O)Nc2ccc(C(=O)O)c(O)c2)C1=O)=C\c1ccccc1 [2-hydroxy-4-[[4-[(5Z)-5-[(E)-2-methyl-3-phenylprop-2-enylidene]-4-oxo-2-sulfanylidene-3-thiazolidinyl]-1-oxobutyl]amino]benzoic acid]
IC50: 21.7 µM
